This note sets out measurements from patent US20180002288A1, “USE OF PICOLINAMIDES AS FUNGICIDES” (DOW AGROSCIENCES LLC, priority 2014, published 2018).

For one assay, the system named is Rhyncosporium secalis. The assay can be described thus: Barley Scald fungicidal activity (RHYNSE). To be noted: Hordeum vulgare, 24 h, high volume, 1 Day Protectant, read-out: RHYNSE % Control rating. In kind it is in vivo. On the procedure:
All fungicides were evaluated using the aforementioned method for their activity vs. all target diseases, unless stated otherwise. Wheat leaf blotch and brown rust activity were also evaluated using track spray applications, in which case the fungicides were formulated as EC formulations, containing 0.1% Trycol 5941 in the spray solutions. Wheat plants (variety Yuma) were grown from seed in a greenhouse in 50% mineral soil/50% soil-less Metro mix until the first leaf was fully emerged, with 7-10 seedlings per pot. These plants were inoculated with an aqueous spore suspension of Zymoseptoria tritici either prior to or after fungicide treatments. After inoculation the plants were kept in 100% relative humidity (one day in a dark dew chamber followed by two to three days in a lighted dew chamber at 20° C.) to permit spores to germinate and infect the leaf. The plants were then transferred to a greenhouse set at 20° C. for disease to develop. When disease symptoms were fully expressed on the 1st leaves of untreated plants, infection levels were assessed on a scale of 0 to 100 percent disease severity. Percent disease control was calculated using the ratio of disease severity on treated plants relative to untreated plants. Barley seedlings (variety Harrington) were propagated in soil-less Metro mix, with each pot having 8 to 12 plants, and used in the test when first leaf was fully emerged. Test plants were inoculated by an aqueous spore suspension of Rhyncosporium secalis 24 hr after fungicide treatments. After inoculation the plants were kept in a dew room at 22° C. with 100% relative humidity for 48 hr. The plants were then transferred to a greenhouse set at 20° C. for disease to develop. Fungicide formulation, application and disease assessment on the sprayed leaves followed the procedures as described in the Example A.

Assay [1] relates to Colletotrichum lagenarium. The assay can be described thus: Cucumber Anthracnose fungicidal activity (COLLLA). To be noted: Colletotrichum orbiculare, 24 h, high volume, 1 Day Protectant, read-out: COLLLA % Control rating. Format: in vivo. On the procedure:
All fungicides were evaluated using the aforementioned method for their activity vs. all target diseases, unless stated otherwise. Wheat leaf blotch and brown rust activity were also evaluated using track spray applications, in which case the fungicides were formulated as EC formulations, containing 0.1% Trycol 5941 in the spray solutions. Wheat plants (variety Yuma) were grown from seed in a greenhouse in 50% mineral soil/50% soil-less Metro mix until the first leaf was fully emerged, with 7-10 seedlings per pot. These plants were inoculated with an aqueous spore suspension of Zymoseptoria tritici either prior to or after fungicide treatments. After inoculation the plants were kept in 100% relative humidity (one day in a dark dew chamber followed by two to three days in a lighted dew chamber at 20° C.) to permit spores to germinate and infect the leaf. The plants were then transferred to a greenhouse set at 20° C. for disease to develop. When disease symptoms were fully expressed on the 1st leaves of untreated plants, infection levels were assessed on a scale of 0 to 100 percent disease severity. Percent disease control was calculated using the ratio of disease severity on treated plants relative to untreated plants. Cucumber seedlings (variety Bush Pickle) were propagated in soil-less Metro mix, with each pot having one plant, and used in the test when 12 to 14 days old. Test plants were inoculated with an aqueous spore suspension of Colletotrichum lagenarium 24 hr after fungicide treatments. After inoculation the plants were kept in a dew room at 22° C. with 100% relative humidity for 48 hr to permit spores to germinate and infect the leaf. The plants were then transferred to a growth room set at 22° C. for disease to develop. Fungicide formulation, application and disease assessment on the sprayed leaves followed the procedures as described in the Example A.

Another assay deals with Phakopsora pachyrhizi. The assay can be described thus: Asian Soybean Rust fungicidal activity (PHAKPA). The settings on record: Phakopsora pachyrhizi, in Glycine max.
A further assay concerns Zymoseptoria tritici. The assay can be described thus: Leaf Blotch of Wheat fungicidal activity (SEPTTR). Format: in vivo. To be noted: Low Volume Cereal Activity at 121.5 g/Ha.
The next assay concerns Leptosphaeria nodorum. The assay can be described thus: Wheat Glume Blotch fungicidal activity (LEPTNO). Format: in vivo. The settings on record: Parastagonospora nodorum, 24 h, high volume, 1 Day Protectant, read-out: LEPTNO % Control rating. On the procedure:
All fungicides were evaluated using the aforementioned method for their activity vs. all target diseases, unless stated otherwise. Wheat leaf blotch and brown rust activity were also evaluated using track spray applications, in which case the fungicides were formulated as EC formulations, containing 0.1% Trycol 5941 in the spray solutions. Wheat plants (variety Yuma) were grown from seed in a greenhouse in 50% mineral soil/50% soil-less Metro mix until the first leaf was fully emerged, with 7-10 seedlings per pot. These plants were inoculated with an aqueous spore suspension of Zymoseptoria tritici either prior to or after fungicide treatments. After inoculation the plants were kept in 100% relative humidity (one day in a dark dew chamber followed by two to three days in a lighted dew chamber at 20° C.) to permit spores to germinate and infect the leaf. The plants were then transferred to a greenhouse set at 20° C. for disease to develop. When disease symptoms were fully expressed on the 1st leaves of untreated plants, infection levels were assessed on a scale of 0 to 100 percent disease severity. Percent disease control was calculated using the ratio of disease severity on treated plants relative to untreated plants. Wheat plants (variety Yuma) were grown from seed in a greenhouse in 50% mineral soil/50% soil-less Metro mix until the first leaf was fully emerged, with 7-10 seedlings per pot. These plants were inoculated with an aqueous spore suspension of Leptosphaeria nodorum 24 hr after fungicide treatments. After inoculation the plants were kept in 100% relative humidity (one day in a dark dew chamber followed by two days in a lighted dew chamber at 20° C.) to permit spores to germinate and infect the leaf. The plants were then transferred to a greenhouse set at 20° C. for disease to develop. Fungicide formulation, application and disease assessment followed the procedures as described in the Example A.

Another assay has as its system Pyricularia oryzae. The assay can be described thus: whole plant or invertebrate. In kind it is in vivo. The settings on record: 24 h, read-out: PYRIOR % Control rating.
Where [2] appears, read: 24 h, read-out: PHAKPA 1DP % Control rating, soybean, high volume, 25 ppm, 1 Day Protectant.
Where [3] appears, read: 72 h, read-out: PHAKPA 3DC % Control rating, soybean, high volume, 25 ppm, 3 Day Curative.
The mark [4] stands for this setting: 24 h, 1 Day Protectant, read-out: SEPTTR 1DP (Wheat Leaf Blotch, 1 Day Protectant).
Setting [5] is: 72 h, 3 Day Curative, read-out: SEPTTR 3DC (Wheat Leaf Blotch, 3 Day Curative).

Like-named read-outs stand apart in the source and are kept apart here.

On to `COc1ccnc(C(=O)N[C@@H](C)C(=O)O[C@@H](C)[C@H](Oc2ccccc2)c2ccc(F)cc2F)c1OCOC(C)=O` [Example 250], for which the pest or weed control at 100 ppm in the assay with Rhyncosporium secalis was under 80%; in assay [1] it was over 80%; with Leptosphaeria nodorum, under 0%; in the assay on Pyricularia oryzae, under 80%. Also, the results for the pest or weed control at 25 ppm in the assay with Phakopsora pachyrhizi (setting [2]) and with Phakopsora pachyrhizi (setting [3]) were over 80% and under 80%, respectively. The pest or weed control at 121.5 g/ha in the assay with Zymoseptoria tritici (setting [4]) and in the assay on Zymoseptoria tritici (setting [5]) was over 80% each time.

As to `COc1ccccc1[C@@H](Oc1ccccc1)[C@H](C)OC(=O)[C@H](C)NC(=O)c1nccc(OC)c1OCOC(C)=O` [Example 255], the pest or weed control at 100 ppm was under 80% with Rhyncosporium secalis, over 80% in assay [1], over 80% with Leptosphaeria nodorum and over 80% in the assay with Pyricularia oryzae. Besides, the pest or weed control at 25 ppm was over 80% in the assay with Phakopsora pachyrhizi (setting [2]) and under 0% in the assay on Phakopsora pachyrhizi (setting [3]). Besides, the pest or weed control at 121.5 g/ha in the assay on Zymoseptoria tritici (setting [4]) and in the assay with Zymoseptoria tritici (setting [5]) was over 80% in each case.

Turning to `COc1cc(F)ccc1[C@@H](Oc1ccccc1)[C@H](C)OC(=O)[C@H](C)NC(=O)c1nccc(OC)c1OCOC(C)=O` [Example 256], the pest or weed control at 100 ppm (in the assay on Rhyncosporium secalis; in assay [1]; in the assay with Leptosphaeria nodorum; in the assay on Pyricularia oryzae) was over 80% each time. For the same molecule, the values for the pest or weed control at 25 ppm in the assay with Phakopsora pachyrhizi (setting [2]) and in the assay with Phakopsora pachyrhizi (setting [3]) were over 80% and under 0%, respectively. Besides, the pest or weed control at 121.5 g/ha in the assay on Zymoseptoria tritici (setting [4]) and with Zymoseptoria tritici (setting [5]) was over 80% in each case.

With `COc1ccnc(C(=O)N[C@@H](C)C(=O)O[C@@H](C)[C@H](Oc2ccccc2)c2ccc(F)cc2C)c1OCOC(C)=O` [Example 259], the pest or weed control at 100 ppm (in the assay with Rhyncosporium secalis; in assay [1]; in the assay with Leptosphaeria nodorum; in the assay with Pyricularia oryzae) was over 80% in each case. The pest or weed control at 25 ppm is over 80% in the assay on Phakopsora pachyrhizi (setting [2]) and under 0% in the assay on Phakopsora pachyrhizi (setting [3]). Moreover, the pest or weed control at 121.5 g/ha in the assay on Zymoseptoria tritici (setting [4]) and with Zymoseptoria tritici (setting [5]) was over 80% in each case.

With `COc1ccnc(C(=O)N[C@@H](C)C(=O)O[C@@H](C)[C@H](Oc2ccccc2)c2ccc(F)cc2Cl)c1OCOC(C)=O` [Example 260], the pest or weed control at 100 ppm (in the assay on Rhyncosporium secalis; in assay [1]; in the assay on Leptosphaeria nodorum; in the assay on Pyricularia oryzae) was over 80% throughout. For the same molecule, the pest or weed control at 25 ppm in the assay on Phakopsora pachyrhizi (setting [2]) is over 80%; in the assay with Phakopsora pachyrhizi (setting [3]), under 80%. Moreover, the pest or weed control at 121.5 g/ha in the assay with Zymoseptoria tritici (setting [4]) and in the assay on Zymoseptoria tritici (setting [5]) was over 80% in each case.
